Assay results: patent US20080261936A1, “METHODS OF REDUCING THE BODY WEIGHT OF A SUBJECT BY ADMINISTERING A FATTY ACID ESTER OF AN ESTROGEN OR ESTROGEN DERIVATIVE IN AN OIL AND COMPOSITIONS CONTAINING THE SAME” (Manhattan Pharmaceuticals, Inc., priority 2006, published 2008)
Values joined by “and” are separate entries in the source; they are usually repeats but may differ in a detail not shown here. Identical values can stand only once.

Assays:
Type in all cases: physicochemical
[1] = Oil evaluation: solubility behavior of oleoyl-estrone, 200 mg/g in single oils
Experimental: An oil evaluation was done to determine the solubility behavior of oleoyl-estrone as a function of type of oil, concentration and temperature. The solubility of oleoyl-estrone was evaluated at concentrations of 60 mg/g and 200 mg/g. […]

[2] = Solubility of oleoyl-estrone in binary oil blends, 200 mg/g at room temperature
Experimental: These four types of oils were then evaluated in binary blend systems with an oleoyl-estrone concentration of 200 mg/g at room temperature for 24 hours and 96 hours.

[3] = Compatibility/stability of oleoyl-estrone in oil systems (appearance/color, potency, related substances)
Experimental: The compatibility of oleoyl-estrone in various oil systems was also assessed. The respective stability of oleoyl-estrone in various oils was assessed following storage at (A) 25° C./60% and relative humidity (RH), (B) 40° C./75% RH, (C) 50° C. and (D) 60° C. in canola oil, safflower oil, Captex and a 2:1 Captex: Labrafil mixture. The stability test methods include appearance/color, potency, and related substances (e.g. impurities or degradant in the oleoyl-estrone and oil mixture).

[4] = 200 mg/g in Captex 300-6C at 40° C.
[5] = 200 mg/g in Captex 300 EP at 40° C.
[6] = 200 mg/g in Labrafil 1944 CS at 40° C.
[7] = 200 mg/g in Safflower at 40° C.
[8] = 200 mg/g in Canola:Labrafil (2:1) at RT (about 22° C.)
[9] = 200 mg/g in Captex 300 EP:Labrafil (2:1) at RT (about 22° C.)
[10] = 200 mg/g in Safflower:Labrafil (2:1) at RT (about 22° C.)
[11] = in 2:1 CAPTEX:LABRAFIL, One Week 25° C./60% RH
[12] = in 2:1 CAPTEX:LABRAFIL, One Week 40° C./75% RH
[13] = in 2:1 CAPTEX:LABRAFIL, One Week 50° C.
[14] = in 2:1 CAPTEX:LABRAFIL, One Week 60° C.
[15] = in 2:1 CAPTEX:LABRAFIL, Time Zero
[16] = in 2:1 CAPTEX:LABRAFIL, Two Weeks 25° C./60% RH
[17] = in 2:1 CAPTEX:LABRAFIL, Two Weeks 40° C./75% RH
[18] = in CANOLA, One Week 25° C./60% RH
[19] = in CANOLA, One Week 40° C./75% RH

What does the source list for CCCCCCCC/C=C\CCCCCCCC(=O)Oc1ccc2c(c1)CC[C@@H]1[C@@H]2CC[C@]2(C)C(=O)CC[C@@H]12 [oleoyl-estrone, [3(Z)]-3-[(1-oxo-9-octadecenyl)oxy]-estra-1,3,5(10)-trien-17-one]?
Solubility Cycled to 22° C. for 24 hr prior to 5° C. cycle for 96 hr ([1]; 200 mg/g in Canola): Dissolved; Solubility After 24 hr ([1]; 200 mg/g in Canola at 40° C.): Dissolved; Solubility After 96 hr ([1]; 200 mg/g in Canola at 40° C.): Dissolved; Solubility Cycled to 22° C. for 24 hr prior to 5° C. cycle for 96 hr ([1]; 200 mg/g in Captex 300-6C): Dissolved; Solubility After 24 hr [1, 4]: Dissolved; Solubility After 96 hr [1, 4]: Dissolved; Solubility Cycled to 22° C. for 24 hr prior to 5° C. cycle for 96 hr ([1]; 200 mg/g in Captex 300 EP): Dissolved; Solubility After 24 hr [1, 5]: Dissolved; Solubility After 96 hr [1, 5]: Dissolved; Solubility Cycled to 22° C. for 24 hr prior to 5° C. cycle for 96 hr ([1]; 200 mg/g in Corn): Precipitated at 5 °C after 72 hr; Solubility After 24 hr ([1]; 200 mg/g in Corn at 40° C.): Dissolved; Solubility After 96 hr ([1]; 200 mg/g in Corn at 40° C.): Dissolved; Solubility Cycled to 22° C. for 24 hr prior to 5° C. cycle for 96 hr ([1]; 200 mg/g in Labrafac): Precipitated at 5 °C after 4 hr; Solubility After 24 hr ([1]; 200 mg/g in Labrafac at 40° C.): Dissolved; Solubility After 96 hr ([1]; 200 mg/g in Labrafac at 40° C.): Dissolved; Solubility Cycled to 22° C. for 24 hr prior to 5° C. cycle for 96 hr ([1]; 200 mg/g in Labrafil 1944 CS): Precipitated at 5 °C after 4 hr; Solubility After 24 hr [1, 6]: Dissolved; Solubility After 96 hr [1, 6]: Dissolved; Solubility Cycled to 22° C. for 24 hr prior to 5° C. cycle for 96 hr ([1]; 200 mg/g in Labrafil M 125CS): Precipitated at 5 °C after 24 hr; Solubility After 96 hr ([1]; 200 mg/g in Labrafil M 125CS at 40° C.): Dissolved; Solubility Cycled to 22° C. for 24 hr prior to 5° C. cycle for 96 hr ([1]; 200 mg/g in Labrasol): Precipitated at RT not tested; Solubility After 24 hr ([1]; 200 mg/g in Labrasol at 40° C.): Dissolved; Solubility After 96 hr ([1]; 200 mg/g in Labrasol at 40° C.): Dissolved; Solubility Cycled to 22° C. for 24 hr prior to 5° C. cycle for 96 hr ([1]; 200 mg/g in Olive): Precipitated at 5 °C after 4 hr; Solubility After 24 hr ([1]; 200 mg/g in Olive at 40° C.): Dissolved; Solubility After 96 hr ([1]; 200 mg/g in Olive at 40° C.): Dissolved; Solubility Cycled to 22° C. for 24 hr prior to 5° C. cycle for 96 hr ([1]; 200 mg/g in Safflower): Dissolved; Solubility After 24 hr [1, 7]: Dissolved; Solubility After 96 hr [1, 7]: Dissolved; Solubility Cycled to 22° C. for 24 hr prior to 5° C. cycle for 96 hr ([1]; 200 mg/g in Sesame): Precipitated at 5 °C after 5 hr; Solubility After 24 hr ([1]; 200 mg/g in Sesame at 40° C.): Dissolved; Solubility After 96 hr ([1]; 200 mg/g in Sesame at 40° C.): Dissolved; Solubility Cycled to 22° C. for 24 hr prior to 5° C. cycle for 96 hr ([1]; 200 mg/g in Soybean): Dissolved; Solubility After 24 hr ([1]; 200 mg/g in Soybean at 40° C.): Dissolved; Solubility After 96 hr ([1]; 200 mg/g in Soybean at 40° C.): Dissolved; Solubility and thermal stability in single oils (summary) ([1]; in safflower oil, soybean oil, canola oil and the medium chain triglycerides): soluble and thermally stable; Notes (phase separation) [2, 8]: No phase separation; Solubility After 24 hr [2, 8]: Dissolved; Solubility After 96 hr [2, 8]: Dissolved; Notes (phase separation) [2, 9]: No phase separation; Solubility After 24 hr [2, 9]: Dissolved; Solubility After 96 hr [2, 9]: Dissolved; Notes (phase separation) [2, 10]: No phase separation; Solubility After 24 hr [2, 10]: NOT Dissolved; Solubility After 96 hr [2, 10]: Dissolved; Solubility After 24 hr ([2]; 200 mg/g in Soybean:Labrafil (2:1) at RT (about 22° C.)): NOT Dissolved; Mean Purity Assay [3, 11]: 101.9%; Purity Assay [3, 11]: 100.4% and 103.3%; Mean Purity Assay [3, 12]: 104.4%; Purity Assay [3, 12]: 102.2% and 106.6%; Mean Purity Assay [3, 13]: 106.8%; Purity Assay [3, 13]: 106.6% and 107.0%; Mean Purity Assay [3, 14]: 98.2%; Purity Assay [3, 14]: 98.4% and 97.9%; Mean Purity Assay ([3]; in 2:1 CAPTEX:LABRAFIL, Three Weeks 25° C./60% RH): 102.1%; Mean Purity Assay ([3]; in 2:1 CAPTEX:LABRAFIL, Three Weeks 40° C./75% RH): 99.7%; Mean Purity Assay ([3]; in 2:1 CAPTEX:LABRAFIL, Three Weeks 50° C.): 103.8%; Mean Purity Assay ([3]; in 2:1 CAPTEX:LABRAFIL, Three Weeks 60° C.): 102.1%; Mean Purity Assay [3, 15]: 104.8%; Purity Assay [3, 15]: 105.1% and 104.9% and 103.6% and 105.2%; Mean Purity Assay [3, 16]: 102.9%; Purity Assay [3, 16]: 101.3% and 104.4%; Mean Purity Assay [3, 17]: 104.5%; Purity Assay [3, 17]: 107.3% and 101.7%; Mean Purity Assay ([3]; in 2:1 CAPTEX:LABRAFIL, Two Weeks 50° C.): 104.0%; Mean Purity Assay ([3]; in 2:1 CAPTEX:LABRAFIL, Two Weeks 60° C.): 106.2%; Mean Purity Assay [3, 18]: 96.5%; Purity Assay [3, 18]: 96.3% and 96.7%; Mean Purity Assay [3, 19]: 95.8%; Purity Assay [3, 19]: 95.2% and 96.4%; Mean Purity Assay ([3]; in CANOLA, One Week 50° C.): 99.8%; Purity Assay ([3]; in CANOLA, One Week 50° C.): 96.3% and 103.3%; Mean Purity Assay ([3]; in CANOLA, One Week 60° C.): 98.2%
